We go through 7 molecules from US11697648B2, “Fused pyrimidine pyridinone compounds as JAK inhibitors” (THERAVANCE BIOPHARMA R&D IP, LLC, priority 2019, dated 2023).

Each structure is given as a SMILES string.

In data set [1] the test system is IL-2 stimulated STAT5 phosphorylation in Tall-1 human T cell line (JAK3). The experiment in a line: Cellular JAK3 potency assay: inhibition of IL-2 stimulated pSTAT5 in Tall-1 T cells. To be noted: IL-2 stimulated pSTAT5, Tall-1 T cells. In kind it is cell-based. The method in brief: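 Tall-1 cells, 45,000 per well, preincubated 1 hour with compound at 37 °C, then stimulated 30 minutes with IL-2 at 300 ng/ml final. pSTAT5 (Tyr694/699) in lysates quantified by AlphaLISA SureFire Ultra. pIC50 derived from inhibition curves, given as mean with SD.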

The next data set deals with Tyk2 (Homo sapiens (Human), UniProt P29597). Briefly: Biochemical Tyk2 kinase assay (LanthaScreen). An outline of the steps:
(§1)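 GST-JAK + GFP-STAT1 peptide, HEPES pH 7.5/MgCl2/EGTA/Brij-35 buffer; cpd preincubation 1 h RT; ATP start, 1 h RT; stop with 10 mM EDTA + 2 nM Tb-anti-pSTAT1; TR-FRET 520/495. 4-parameter IC50 → pKi (Cheng-Prusoff).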
Background: TR-FRET usually uses a lanthanide donor and a delayed reading to cut background.

Data set [2] in a line: Colon and plasma mouse pharmacokinetics. In kind it is in vivo. To be noted: mouse, colon tissue / plasma; male Balb/c mice, 10 mg/kg PO; ratio of the colon AUC to the plasma AUC. An outline of the steps:
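Male Balb/c mice given 10 mg/kg PO in 1% HPMC + 0.1% Tween-80; plasma, colon tissue and colon contents taken at 0.5, 2 and 6 h, quantified by LC/MS/MS. Non-compartmental analysis on means of 2 animals/time point; colon:plasma ratio taken as colon AUC over plasma AUC.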

In the next data set the target is JAK2 (Homo sapiens (Human), UniProt O60674). Briefly: Biochemical JAK2 kinase assay (LanthaScreen). The method in brief:
as §1

For a further data set, the target named is JAK1 (Homo sapiens (Human), UniProt P23458). The experiment in a line: Biochemical JAK1 kinase assay (LanthaScreen). An outline of the steps:
as §1

Tyk2, sequence (P29597 whole entry): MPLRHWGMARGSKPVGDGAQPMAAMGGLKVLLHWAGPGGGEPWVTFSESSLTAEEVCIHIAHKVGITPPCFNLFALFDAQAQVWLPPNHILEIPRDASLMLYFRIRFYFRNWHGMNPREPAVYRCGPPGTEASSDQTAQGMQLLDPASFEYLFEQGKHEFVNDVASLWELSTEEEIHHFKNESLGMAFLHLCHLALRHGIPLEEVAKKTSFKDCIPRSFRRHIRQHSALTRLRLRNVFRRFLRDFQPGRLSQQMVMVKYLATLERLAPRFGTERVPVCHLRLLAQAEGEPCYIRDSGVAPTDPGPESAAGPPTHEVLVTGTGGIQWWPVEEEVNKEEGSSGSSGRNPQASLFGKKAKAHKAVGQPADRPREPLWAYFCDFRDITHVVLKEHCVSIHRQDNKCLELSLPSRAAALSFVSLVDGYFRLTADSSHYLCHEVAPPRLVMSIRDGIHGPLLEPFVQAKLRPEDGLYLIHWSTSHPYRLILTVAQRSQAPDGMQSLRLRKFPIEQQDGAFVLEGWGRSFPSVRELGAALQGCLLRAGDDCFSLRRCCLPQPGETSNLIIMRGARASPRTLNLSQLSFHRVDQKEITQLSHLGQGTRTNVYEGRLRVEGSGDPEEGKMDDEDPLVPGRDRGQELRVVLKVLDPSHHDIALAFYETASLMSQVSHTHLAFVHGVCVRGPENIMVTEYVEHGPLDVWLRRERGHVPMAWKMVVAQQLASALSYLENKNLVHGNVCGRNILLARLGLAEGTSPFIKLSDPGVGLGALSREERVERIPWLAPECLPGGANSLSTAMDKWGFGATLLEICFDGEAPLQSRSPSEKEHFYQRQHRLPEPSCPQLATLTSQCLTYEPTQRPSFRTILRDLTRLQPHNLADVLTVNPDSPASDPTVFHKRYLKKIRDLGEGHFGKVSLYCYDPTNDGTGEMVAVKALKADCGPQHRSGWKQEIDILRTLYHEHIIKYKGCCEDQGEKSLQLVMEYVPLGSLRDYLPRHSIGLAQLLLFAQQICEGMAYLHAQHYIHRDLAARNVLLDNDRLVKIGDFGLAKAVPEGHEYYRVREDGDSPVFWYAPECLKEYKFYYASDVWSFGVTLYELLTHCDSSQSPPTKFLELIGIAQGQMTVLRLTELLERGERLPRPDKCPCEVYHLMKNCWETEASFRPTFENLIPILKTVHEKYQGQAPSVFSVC
JAK1, sequence (P23458 whole entry): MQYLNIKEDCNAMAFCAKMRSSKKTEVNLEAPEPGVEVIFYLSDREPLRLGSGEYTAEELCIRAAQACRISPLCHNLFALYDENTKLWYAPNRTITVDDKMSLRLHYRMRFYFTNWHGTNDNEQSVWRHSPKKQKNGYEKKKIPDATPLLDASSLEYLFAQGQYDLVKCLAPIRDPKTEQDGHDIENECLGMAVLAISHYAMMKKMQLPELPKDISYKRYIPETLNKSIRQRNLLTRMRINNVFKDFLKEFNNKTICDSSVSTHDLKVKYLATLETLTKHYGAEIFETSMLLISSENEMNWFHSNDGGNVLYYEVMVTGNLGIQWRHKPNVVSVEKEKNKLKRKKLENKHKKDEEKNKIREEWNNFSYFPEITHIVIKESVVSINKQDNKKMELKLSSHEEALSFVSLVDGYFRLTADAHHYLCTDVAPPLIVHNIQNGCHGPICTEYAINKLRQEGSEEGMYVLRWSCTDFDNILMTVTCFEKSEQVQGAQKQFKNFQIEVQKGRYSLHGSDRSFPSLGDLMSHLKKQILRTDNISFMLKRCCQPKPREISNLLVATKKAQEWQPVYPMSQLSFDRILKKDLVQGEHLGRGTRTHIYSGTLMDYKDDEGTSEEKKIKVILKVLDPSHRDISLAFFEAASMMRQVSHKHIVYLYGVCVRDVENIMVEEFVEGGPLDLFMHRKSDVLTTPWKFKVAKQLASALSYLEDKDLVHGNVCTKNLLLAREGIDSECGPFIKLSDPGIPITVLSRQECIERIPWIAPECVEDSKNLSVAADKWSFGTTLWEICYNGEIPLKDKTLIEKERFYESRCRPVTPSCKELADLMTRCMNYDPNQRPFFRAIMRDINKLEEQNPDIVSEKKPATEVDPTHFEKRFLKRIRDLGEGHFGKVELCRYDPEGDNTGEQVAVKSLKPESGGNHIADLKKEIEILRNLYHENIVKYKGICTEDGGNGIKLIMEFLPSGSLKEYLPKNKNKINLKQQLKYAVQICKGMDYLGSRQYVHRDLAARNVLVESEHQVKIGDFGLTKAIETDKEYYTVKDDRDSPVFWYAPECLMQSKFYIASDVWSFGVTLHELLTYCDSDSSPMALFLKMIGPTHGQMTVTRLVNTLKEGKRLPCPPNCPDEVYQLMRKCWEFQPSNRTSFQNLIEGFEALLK
JAK2, sequence (O60674 whole entry): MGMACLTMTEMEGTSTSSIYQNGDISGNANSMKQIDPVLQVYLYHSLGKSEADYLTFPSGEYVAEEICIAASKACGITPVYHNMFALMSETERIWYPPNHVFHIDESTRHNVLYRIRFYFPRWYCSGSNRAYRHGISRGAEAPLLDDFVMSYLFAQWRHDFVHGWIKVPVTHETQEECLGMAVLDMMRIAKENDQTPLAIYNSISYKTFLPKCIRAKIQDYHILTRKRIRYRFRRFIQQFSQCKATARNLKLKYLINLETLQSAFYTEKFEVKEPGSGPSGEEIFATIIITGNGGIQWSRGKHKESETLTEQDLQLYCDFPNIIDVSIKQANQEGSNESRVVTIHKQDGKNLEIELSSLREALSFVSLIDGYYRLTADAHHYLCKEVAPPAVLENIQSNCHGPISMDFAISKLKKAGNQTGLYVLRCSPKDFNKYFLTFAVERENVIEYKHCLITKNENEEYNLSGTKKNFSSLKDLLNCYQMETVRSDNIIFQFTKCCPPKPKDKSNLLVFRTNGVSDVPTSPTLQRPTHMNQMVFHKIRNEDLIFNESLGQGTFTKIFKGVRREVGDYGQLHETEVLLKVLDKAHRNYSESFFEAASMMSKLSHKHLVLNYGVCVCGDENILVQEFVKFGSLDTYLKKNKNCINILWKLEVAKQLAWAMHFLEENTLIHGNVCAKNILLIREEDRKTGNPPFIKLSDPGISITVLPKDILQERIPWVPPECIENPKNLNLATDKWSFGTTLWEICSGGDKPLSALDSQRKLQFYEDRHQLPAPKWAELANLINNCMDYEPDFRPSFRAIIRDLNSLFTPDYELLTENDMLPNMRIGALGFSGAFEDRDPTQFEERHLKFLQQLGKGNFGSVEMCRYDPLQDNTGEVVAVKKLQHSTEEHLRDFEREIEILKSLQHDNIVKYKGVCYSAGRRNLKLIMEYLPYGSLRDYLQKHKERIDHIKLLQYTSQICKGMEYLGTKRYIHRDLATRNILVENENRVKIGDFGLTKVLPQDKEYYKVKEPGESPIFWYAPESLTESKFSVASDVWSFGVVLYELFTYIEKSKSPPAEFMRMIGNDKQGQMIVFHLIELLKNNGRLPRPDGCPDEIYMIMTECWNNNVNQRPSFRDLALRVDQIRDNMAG

By Kp is commonly meant tissue or fluid exposure divided by exposure in the circulation. Regarding `C=CC(=O)N1CCN(CCn2c(=O)ccc3cnc(Nc4ccc(N5CCN(C)CC5)cc4)nc32)CC1` [Example 1, 8-(2-(4-acryloylpiperazin-1-yl)ethyl)-2-((4-(4-methylpiperazin-1-yl)phenyl)amino)pyrido[2,3-d]pyrimidin-7(8H)-one], in data set [1], the “Tall-1 (pIC50)” value is “B (B represents a pC50 value between 6.7 (included) and 7.5 (IC50 between 200 nM and 32 nM))”. Also, the “Tyk 2 (pKi)” value at Tyk2 is reported as “E (E represents a pKi value of 7 or below (Ki of 100 nM or above))”. Moreover, the concentration ratio (Kp) in data set [2] is greater than 1000. Besides, the “JAK 2 (pKi)” value at JAK2 is given as “E (E represents a pKi value of 7 or below (Ki of 100 nM or above))”. For the same molecule, the “JAK 1 (pKi)” value on JAK1 is recorded as “E (E represents a pKi value of 7 or below (Ki of 100 nM or above))”.

In the case of `C=CC(=O)N1CC(CCn2c(=O)ccc3cnc(Nc4ccc(N5CCN(C(C)=O)CC5)cc4)nc32)C1` [Example 2, 2-((4-(4-acetylpiperazin-1-yl)phenyl)amino)-8-(2-(1-acryloylazetidin-3-yl)ethyl)pyrido[2,3-d]pyrimidin-7(8H)-one], the “Tall-1 (pIC50)” value in data set [1] is “B (B represents a pC50 value between 6.7 (included) and 7.5 (IC50 between 200 nM and 32 nM))”. Moreover, the “Tyk 2 (pKi)” value on Tyk2 is listed as “E (E represents a pKi value of 7 or below (Ki of 100 nM or above))”. Further, the Kp in data set [2] was greater than 100. For the same molecule, the “JAK 2 (pKi)” value on JAK2 is “E (E represents a pKi value of 7 or below (Ki of 100 nM or above))”. The “JAK 1 (pKi)” value on JAK1 is given as “E (E represents a pKi value of 7 or below (Ki of 100 nM or above))”.

Consider `C=CC(=O)N1CCN(CCn2c(=O)ccc3cnc(Nc4ccc(N5CCN(C(=O)CCSC)CC5)cc4)nc32)CC1` [Example 4, 8-(2-(4-acryloylpiperazin-1-yl)ethyl)-2-((4-(4-(3-(methylthio)propanoyl)piperazin-1-yl)phenyl)amino)pyrido[2,3-d]pyrimidin-7(8H)-one], for which the “Tall-1 (pIC50)” value in data set [1] is “B (B represents a pC50 value between 6.7 (included) and 7.5 (IC50 between 200 nM and 32 nM))”. In addition, the “Tyk 2 (pKi)” value on Tyk2 is given as “E (E represents a pKi value of 7 or below (Ki of 100 nM or above))”. Besides, in data set [2], the partition ratio (Kp) is greater than 1000. On JAK2, the “JAK 2 (pKi)” value was “E (E represents a pKi value of 7 or below (Ki of 100 nM or above))”. Also, the “JAK 1 (pKi)” value at JAK1 is “E (E represents a pKi value of 7 or below (Ki of 100 nM or above))”.

As to `C=CC(=O)N1CC(CCn2c(=O)ccc3cnc(Nc4cccc(CN5CCN(C(=O)N(C)C)CC5)c4)nc32)C1` [Example 5, 4-(3-((8-(2-(1-acryloylazetidin-3-yl)ethyl)-7-oxo-7,8-dihydropyrido[2,3-d]pyrimidin-2-yl)amino)benzyl)-N,N-dimethylpiperazine-1-carboxamide], the “Tall-1 (pIC50)” value in data set [1] was “B (B represents a pC50 value between 6.7 (included) and 7.5 (IC50 between 200 nM and 32 nM))”. In addition, on Tyk2, the “Tyk 2 (pKi)” value is listed as “E (E represents a pKi value of 7 or below (Ki of 100 nM or above))”. Further, in data set [2], the partition ratio (Kp) was greater than 100. In addition, the “JAK 2 (pKi)” value at JAK2 is “E (E represents a pKi value of 7 or below (Ki of 100 nM or above))”. Besides, the “JAK 1 (pKi)” value at JAK1 is recorded as “E (E represents a pKi value of 7 or below (Ki of 100 nM or above))”.

`C=CC(=O)N1CC(CCn2c(=O)ccc3cnc(Nc4cccc(N5CCN(C(=O)CCSC)CC5)c4)nc32)C1` [Example 7, 8-(2-(1-acryloylazetidin-3-yl)ethyl)-2-((3-(4-(3-(methylthio)propanoyl)piperazin-1-yl)phenyl)amino)pyrido[2,3-d]pyrimidin-7(8H)-one]: in data set [1], the “Tall-1 (pIC50)” value was “B (B represents a pC50 value between 6.7 (included) and 7.5 (IC50 between 200 nM and 32 nM))”. In addition, at Tyk2, the “Tyk 2 (pKi)” value was “E (E represents a pKi value of 7 or below (Ki of 100 nM or above))”. The Kp in data set [2] is greater than 100. For the same molecule, the “JAK 2 (pKi)” value at JAK2 is listed as “E (E represents a pKi value of 7 or below (Ki of 100 nM or above))”. The “JAK 1 (pKi)” value at JAK1 is listed as “E (E represents a pKi value of 7 or below (Ki of 100 nM or above))”.

Consider `C=CC(=O)N1CCN(CCn2c(=O)ccc3cnc(Nc4cnn(C)c4)nc32)[C@@H](CC)C1` [Example 12, (S)-8-(2-(4-acryloyl-2-ethylpiperazin-1-yl)ethyl)-2-((1-methyl-1H-pyrazol-4-yl)amino)pyrido[2,3-d]pyrimidin-7(8H)-one], for which the “Tall-1 (pIC50)” value in data set [1] is “B (B represents a pC50 value between 6.7 (included) and 7.5 (IC50 between 200 nM and 32 nM))”. For the same molecule, on Tyk2, the “Tyk 2 (pKi)” value is listed as “E (E represents a pKi value of 7 or below (Ki of 100 nM or above))”. In addition, the Kp in data set [2] is greater than 50. Besides, the “JAK 2 (pKi)” value on JAK2 is recorded as “E (E represents a pKi value of 7 or below (Ki of 100 nM or above))”. In addition, on JAK1, the “JAK 1 (pKi)” value is reported as “E (E represents a pKi value of 7 or below (Ki of 100 nM or above))”.

Consider `C=CC(=O)N1CC(CCn2c(=O)ccc3cnc(Nc4ccc(N5CCN(C(=O)CSC)CC5)cc4)nc32)C1` [Example 13, 8-(2-(1-acryloylazetidin-3-yl)ethyl)-2-((4-(4-(2-(methylthio)acetyl)piperazin-1-yl)phenyl)amino)pyrido[2,3-d]pyrimidin-7(8H)-one], for which, in data set [1], the “Tall-1 (pIC50)” value is “B (B represents a pC50 value between 6.7 (included) and 7.5 (IC50 between 200 nM and 32 nM))”. For the same molecule, the “Tyk 2 (pKi)” value on Tyk2 was “E (E represents a pKi value of 7 or below (Ki of 100 nM or above))”. Moreover, in data set [2], the partition ratio (Kp) was greater than 1000. For the same molecule, on JAK2, the “JAK 2 (pKi)” value is reported as “E (E represents a pKi value of 7 or below (Ki of 100 nM or above))”. Besides, the “JAK 1 (pKi)” value at JAK1 is reported as “E (E represents a pKi value of 7 or below (Ki of 100 nM or above))”.
